From patent US20070254907A1, “COMPOSITIONS AND METHODS FOR CONTROLLING INFESTATION” (HATCHTECH PTY LTD, priority 2003, published 2007)
“Also recorded” adds a separate entry of the source. Like-named read-outs stand apart in the source and are kept apart here.

What was measured:
lice eggs = test: whole plant or invertebrate; type: in vivo; settings: for inhibition at 10000 µM / inhibition at 2500 µM / inhibition at 5000 µM: read-out: Percent inhibition of egg hatching; for inhibition at 2500 µM: 2.5 mM; for inhibition at 5000 µM: 5 mM
[1] = system: Helicoverpa armigera eggs; test: Egg hatching of Helicoverpa armigera
Plutella xylostella eggs = test: whole plant or invertebrate; type: in vivo; settings: for Number hatched / Number unhatched: dipped 2-10 s, day 6 post laying
Experimental: The ovicidal efficacy of 2-acetyl-1-tetralone was also tested against Plutella eggs.

[2] = Pediculus humanus, 24 h, treated 24 hr post egg laying
[3] = Pediculus humanus, 48 h, treated 48 hr post egg laying
[4] = Pediculus humanus, 72 h, treated 72 hr post egg laying
[5] = Pediculus humanus, 96 h, treated 96 hr post egg laying
[6] = Pediculus humanus, 120 h, treated 120 hr post egg laying
[7] = Pediculus humanus, 144 h, treated 144 hr post egg laying

For `c1cnc2c(c1)ccc1cccnc12` [1,10-phenanthroline, reference compound], the “inhibition of lice egg hatching following washing of eggs in water” value (lice eggs; 10 mM, then 1 minute wash) was “still highly efficacious at inhibiting lice egg hatching”, the “embryo development in treated eggs” value (lice eggs; 10 mM, a proportion of eggs) was “had embryos that appeared to develop normally yet failed to hatch” and the “inhibition of egg hatching in lice” value (lice eggs; 10 mM, eggs treated 5 days post laying, 10 min) was “significantly inhibited egg hatching”. The inhibition at 1000 µM (lice eggs; Pediculus humanus, 1 mM, eggs treated 5 days post laying, 10 min, read-out: level of inhibition of egg hatching compared to controls) was ~30%, the inhibition at 10000 µM (lice eggs; Pediculus humanus, 10 mM, 10 minutes, not washed, treated 24 hr post laying) was 100% and the inhibition at 10000 µM (lice eggs; Pediculus humanus, 10 mM, 10 minutes, not washed, treated 48 hr post laying) was 100%. For the same molecule, the inhibition at 10000 µM (lice eggs; Pediculus humanus, 10 mM, 10 minutes, not washed, treated 72 hr post laying) was 100%, the inhibition at 10000 µM (lice eggs; Pediculus humanus, 10 mM, 10 minutes, not washed, treated 96 hr post laying) was 100% and the inhibition at 10000 µM (lice eggs; Pediculus humanus, 10 mM, 10 minutes, not washed, treated 120 hr post laying) was 100%. The inhibition at 10000 µM (lice eggs; Pediculus humanus, 10 mM, 10 minutes, washed for 1 minute, treated 24 hr post laying) was 100%, the inhibition at 10000 µM (lice eggs; Pediculus humanus, 10 mM, 10 minutes, washed for 1 minute, treated 48 hr post laying) was 100% and the inhibition at 10000 µM (lice eggs; Pediculus humanus, 10 mM, 10 minutes, washed for 1 minute, treated 72 hr post laying) was 100%. It also gave an inhibition at 10000 µM (lice eggs; Pediculus humanus, 10 mM, 10 minutes, washed for 1 minute, treated 96 hr post laying) of 97%, an inhibition at 10000 µM (lice eggs; Pediculus humanus, 10 mM, 10 minutes, washed for 1 minute, treated 120 hr post laying) of 62% and an inhibition at 2500 µM (lice eggs; [2]) of 100%. For the same molecule, the inhibition at 5000 µM (lice eggs; [2]) was 100%, the inhibition at 10000 µM (lice eggs; Pediculus humanus, 24 h, 10 mM, treated 24 hr post egg laying) was 100% and the inhibition at 2500 µM (lice eggs; [3]) was 100%. The inhibition at 5000 µM (lice eggs; [3]) was 100%, the inhibition at 10000 µM (lice eggs; Pediculus humanus, 48 h, 10 mM, treated 48 hr post egg laying) was 100% and the inhibition at 2500 µM (lice eggs; [4]) was 85%. For the same molecule, the inhibition at 5000 µM (lice eggs; [4]) was 100%, the inhibition at 10000 µM (lice eggs; Pediculus humanus, 72 h, 10 mM, treated 72 hr post egg laying) was 100% and the inhibition at 2500 µM (lice eggs; [5]) was 85%. For the same molecule, the inhibition at 5000 µM (lice eggs; [5]) was 100%, the inhibition at 10000 µM (lice eggs; Pediculus humanus, 96 h, 10 mM, treated 96 hr post egg laying) was 100% and the inhibition at 2500 µM (lice eggs; [6]) was 89%. For the same molecule, the inhibition at 5000 µM (lice eggs; [6]) was 93%, the inhibition at 10000 µM (lice eggs; Pediculus humanus, 120 h, 10 mM, treated 120 hr post egg laying) was 100% and the inhibition at 2500 µM (lice eggs; [7]) was 60%. For the same molecule, the inhibition at 5000 µM (lice eggs; [7]) was 96%, the inhibition at 10000 µM (lice eggs; Pediculus humanus, 144 h, 10 mM, treated 144 hr post egg laying) was 100% and the “inhibition of egg hatching” value (lice eggs; added within 24 hours of hatching) was “variable inhibition of egg hatching”. The “inhibition of lice egg hatching in time-course experiments” value (lice eggs; varying concentrations (10, 5, 2.5 mM), 24-144 hr post egg laying) was “Significant inhibition; also recorded: significantly inhibit egg hatching in lice at all time points examined”, the “effect on egg hatching of Helicoverpa armigera (words)” value ([1]; 10 mM) was “able to inhibit egg hatching” and the inhibition at 1000 µM ([1]; Helicoverpa armigera) was 0%. For the same molecule, the inhibition at 10000 µM ([1]; Helicoverpa armigera) was 44%, the Number hatched ([1]; Table 12, 10 mM) was 31 and the Number unhatched ([1]; Table 12, 10 mM) was 16. For the same molecule, the “effect on egg hatching of Plutella xylostella (words)” value (Plutella xylostella eggs; 10 mM) was “significantly inhibit egg hatching”, the inhibition at 1000 µM (Plutella xylostella eggs; Plutella xylostella, Table 9, 1 mM, relative to control (100% MeOH), read-out: % Inhibition) was 0% and the inhibition at 10000 µM (Plutella xylostella eggs; Plutella xylostella, Table 9, 10 mM, relative to control (100% MeOH), read-out: % Inhibition) was 100%. The Number hatched (Plutella xylostella eggs; Table 9, 1 mM) was 15, the Number unhatched (Plutella xylostella eggs; Table 9, 1 mM) was 16 and the Number hatched (Plutella xylostella eggs; Table 9, 10 mM) was 0. For the same molecule, the Number unhatched (Plutella xylostella eggs; Table 9, 10 mM) was 45.
